In patent publication US8962608B2, “Cycloalkylnitrile pyrazole carboxamides as janus kinase inhibitors” (Merck Sharp & Dohme Corp., priority 2011, dated 2015):

Columns and labels:
[1] = molecular target: JAK1 (recombinant purified GST-tagged catalytic domain) (Homo sapiens (Human), UniProt P23458); test: biochemical;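 note: biochemical assay with HTRF read-out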
[2] = molecular target: JAK2 (recombinant purified GST-tagged catalytic domain) (Homo sapiens (Human), UniProt O60674); test: biochemical;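 note: biochemical JAK kinase assay with HTRF detection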
Chain of JAK2 (recombinant purified GST-tagged catalytic domain) (O60674 849-1124): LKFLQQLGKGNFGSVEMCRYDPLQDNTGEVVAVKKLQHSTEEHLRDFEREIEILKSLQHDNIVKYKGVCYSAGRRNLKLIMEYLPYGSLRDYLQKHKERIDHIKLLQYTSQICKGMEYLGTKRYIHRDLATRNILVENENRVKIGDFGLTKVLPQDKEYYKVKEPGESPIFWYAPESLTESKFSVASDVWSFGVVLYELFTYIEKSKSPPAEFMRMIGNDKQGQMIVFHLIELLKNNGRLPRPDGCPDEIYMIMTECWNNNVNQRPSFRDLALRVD

Chain of JAK1 (recombinant purified GST-tagged catalytic domain) (P23458 875-1153): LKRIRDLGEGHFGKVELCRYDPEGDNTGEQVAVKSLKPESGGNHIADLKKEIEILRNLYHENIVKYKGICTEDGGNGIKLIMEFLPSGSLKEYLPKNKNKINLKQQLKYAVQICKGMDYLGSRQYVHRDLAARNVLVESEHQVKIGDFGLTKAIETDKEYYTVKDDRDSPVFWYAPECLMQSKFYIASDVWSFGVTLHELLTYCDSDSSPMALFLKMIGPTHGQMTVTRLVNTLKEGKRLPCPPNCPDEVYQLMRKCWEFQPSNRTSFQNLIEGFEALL

## CN(C)[C@@H]1CC[C@H](n2cc(C(N)=O)c(Nc3ccnc(F)c3)n2)[C@@H](C#N)C1 (single isomer, unassigned) [Example 28-127, 1-[(1S,2S,4R or 1R,2R,4S)-2-cyano-4-(dimethylamino)cyclohexyl]-3-[(2-fluoropyridin-4-yl)amino]-1H-pyrazole-4-carboxamide]
[1]
  IC50: 12 nM
[2]
  IC50: 254 nM

## N#C[C@H]1C[C@@H](NCC2(O)CC2)CC[C@@H]1n1cc(C(N)=O)c(Nc2ccc(C(F)(F)F)cc2)n1 (single isomer, unassigned) [Example 28-23, 1-[(1S,2S,4S or 1R,2R,4R)-2-cyano-4-{[(1-hydroxycyclo-propyl)methyl]amino}cyclo-hexyl]-3-{[4-(trifluoromethyl)phenyl]amino}-1H-pyrazole-4-carboxamide]
[1]
  IC50: 0.45 nM
[2]
  IC50: 23 nM

## N#C[C@H]1CCC[C@@H](O)C1n1cc(C(N)=O)c(Nc2ccccc2)n1 (mixture of isomers) [Example 2-6, 1-[(1R,2S,6R and 1S,2R,6S)-2-cyano-6-hydroxycyclohexyl]-3-(phenylamino)-1H-pyrazole-4-carboxamide]
[1]
  IC50: 370 nM
[2]
  IC50: 1000 nM

## CC(C)(O)CN[C@H]1CCC(n2cc(C(N)=O)c(Nc3ccc(Cl)cc3)n2)[C@@H](C#N)C1 (single isomer, unassigned) [Example 28-221, 3-[(4-chlorophenyl)amino]-1-{(1S,2S,4S or 1R,2R,4R)-2-cyano-4-[(2-hydroxy-2-methylpropyl)amino]cyclo-hexyl}-1H-pyrazole-4-carboxamide]
[1]
  IC50: 2 nM
[2]
  IC50: 42 nM

## N#C[C@H]1C[C@H](N[C@@H](C2CC2)C(F)(F)F)CC[C@@H]1n1cc(C(N)=O)c(Nc2ccc(C(F)(F)F)cc2)n1 (single isomer, unassigned) [Example 28-195, 1-[(1S,2S,4R or 1R,2R,4S)-2-cyano-4-{[(1R)-1-cyclopropyl-2,2,2-trifluoroethyl]amino}cyclo-hexyl]-3-{[4-(trifluoromethyl)phenyl]amino}-1H-pyrazole-4-carboxamide]
[1]
  IC50: 177 nM
[2]
  IC50: 375 nM

## N#C[C@H]1C[C@H](N2C[C@@H]3[C@@H](CO)[C@@H]3C2)CC[C@@H]1n1cc(C(N)=O)c(Nc2ccc(C(F)(F)F)cc2)n1 (single isomer, unassigned) [Example 28-15, 1-{(1S,2S,4R or 1R,2R,4S)-2-cyano-4-[(1R,5S,6R or 1S,5R,6S)-6-(hydroxymethyl)-3-azabicyclo[3.1.0]hex-3-yl]cyclohexyl}-3-{[4-(trifluoromethyl)phenyl]amino}-1H-pyrazole-4-carboxamide]
[1]
  IC50: 0.9 nM
[2]
  IC50: 22 nM

## C[C@H](N[C@@H]1CC[C@H](n2cc(C(N)=O)c(Nc3ccc(C(F)(F)F)cc3)n2)[C@@H](C#N)C1)C1CC1 (single isomer, unassigned) [Example 28-190, 1-[(1S,2S,4R or 1R,2R,4S)-2-cyano-4-{[(1S)-1-cyclopropylethyl]amino}cyclo-hexyl]-3-{[4-(trifluoromethyl)phenyl]amino}-1H-pyrazole-4-carboxamide]
[1]
  IC50: 2 nM
[2]
  IC50: 270 nM

## N#C[C@H]1C[C@H](OCC2CC2)CC[C@@H]1n1cc(C(N)=O)c(Nc2ccnc(F)c2)n1 (single isomer, unassigned) [Example 26-1, 1-[(1S,2S,4R or 1R,2R,4S)-2-cyano-4-(cyclopropylmethoxy)cyclohexyl]-3-[(2-fluoropyridin-4-yl)amino]-1H-pyrazole-4-carboxamide]
[1]
  IC50: 2 nM
[2]
  IC50: 9 nM

## N#C[C@H]1CCCC[C@@H]1n1cc(C(N)=O)c(Nc2ccc(S(=O)(=O)NCc3ccccc3)cc2)n1 (single isomer, unassigned) [Example 17-83, 3-{[4-(benzylsulfamoyl)phenyl]amino}-1-[(1R,2R or 1S,2S)-2-cyanocyclohexyl]-1H-pyrazole-4-carboxamide]
[1]
  IC50: 0.2 nM
[2]
  IC50: 0.9 nM

## N#C[C@H]1CC(N2CC[C@H](F)C2)CC[C@@H]1n1cc(C(N)=O)c(Nc2ccc(S(=O)(=O)C(F)(F)F)cc2)n1 (single isomer, unassigned) [Example 28-158, 1-{(1S,2S or 1R,2R)-2-cyano-4-[(3S)-3-fluoropyrrolidin-1-yl]cyclohexyl}-3-({4-[(trifluoro-methyl)sulfonyl]phenyl}amino)-1H-pyrazole-4-carboxamide]
[1]
  IC50: 1 nM
[2]
  IC50: 17 nM

## N#C[C@@H]1C[C@H](C(=O)NC2CC(F)(F)C2)CC[C@H]1n1cc(C(N)=O)c(Nc2ccc(Cl)cc2)n1 (single isomer, unassigned) [Example 35-18, 3-[(4-chlorophenyl)amino]-1-{(1R,2R,4R or 1S,2S,4S)-2-cyano-4-[(3,3-difluorocyclobutyl)carbamoyl]cyclohexyl}-1H-pyrazole-4-carboxamide]
[1]
  IC50: 13 nM
[2]
  IC50: 136 nM

## N#C[C@H]1CCCC[C@@H]1n1cc(C(N)=O)c(Nc2ccc(C3CC3)nc2)n1 (single isomer, unassigned) [Example 17-80, 1-[(1R,2R or 1S,2S)-2-cyanocyclohexyl]-3-[(6-cyclopropylpyridin-3-yl)amino]-1H-pyrazole-4-carboxamide]
[1]
  IC50: 12 nM
[2]
  IC50: 26 nM

## N#C[C@@H]1CCCC[C@H]1n1cc(C(N)=O)c(Nc2ccc(S(=O)(=O)Nc3ccccn3)cc2)n1 (single isomer, unassigned) [Example 17-67, 1-[(1R,2R or 1S,2S)-2-cyanocyclohexyl]-3-{[4-(pyridin-2-ylsulfamoyl)phenyl]amino}-1H-pyrazole-4-carboxamide]
[1]
  IC50: 3 nM
[2]
  IC50: 9 nM

## CS(=O)(=O)c1ccc(Nc2nn([C@H]3CC[C@@H](O)C[C@@H]3C#N)cc2C(N)=O)cc1 (single isomer, unassigned) [Example 25-28, 1-[(1S,2S,4R or 1R,2R,4S)-2-cyano-4-hydroxycyclohexyl]-3-{[4-(methylsulfonyl)phenyl]amino}-1H-pyrazole-4-carboxamide]
[1]
  IC50: 0.1 nM
[2]
  IC50: 3 nM

## N#C[C@@H]1C[C@H](C(=O)N2CC3(COC3)C2)CC[C@H]1n1cc(C(N)=O)c(Nc2ccc(Cl)cc2)n1 (single isomer, unassigned) [Example 35-36, 3-[(4-chlorophenyl)amino]-1-[(1R,2R,4R or 1S,2S,4S)-2-cyano-4-(2-oxa-6-azaspiro[3.3]hept-6-ylcarbonyl)cyclohexyl]-1H-pyrazole-4-carboxamide]
[1]
  IC50: 10 nM
[2]
  IC50: 111 nM

## CN(C)[C@H]1CC[C@H](n2cc(C(N)=O)c(Nc3ccnc(F)c3)n2)[C@@H](C#N)C1 (single isomer, unassigned) [Example 28-128, 1-[(1S,2S,4S or 1R,2R,4R)-2-cyano-4-(dimethylamino)cyclohexyl]-3-[(2-fluoropyridin-4-yl)amino]-1H-pyrazole-4-carboxamide]
[1]
  IC50: 3 nM
[2]
  IC50: 110 nM

## C[C@H](N[C@H]1CC[C@H](n2cc(C(N)=O)c(Nc3ccc(Cl)cc3)n2)[C@@H](C#N)C1)C1CC1 (single isomer, unassigned) [Example 28-119, 3-[(4-chlorophenyl)amino]-1-[(1S,2S,4S or 1R,2R,4R)-2-cyano-4-{[(1R)-1-cyclopropylethyl]amino}cyclo-hexyl]-1H-pyrazole-4-carboxamide]
[1]
  IC50: 1 nM
[2]
  IC50: 85 nM

## N#C[C@H]1C[C@@H](N2CCC2)CC[C@@H]1n1cc(C(N)=O)c(Nc2ccccc2)n1 (single isomer, unassigned) [Example 28-4, 1-((1R,2R,4R or 1S,2S,4S)-4-(Azetidin-1-yl)-2-cyanocyclohexyl)-3-(phenylamino)-1H-pyrazole-4-carboxamide]
[1]
  IC50: 0.75 nM
[2]
  IC50: 39 nM
